Reference: paper PMC6017738, “A Comparative Pharmacokinetic Study by UHPLC-MS/MS of Main Active Compounds after Oral Administration of Zushima-Gancao Extract in Normal and Adjuvant-Induced Arthritis Rats” (Molecules : A Journal of Synthetic Chemistry and Natural …, 2018)

How the values were obtained:
[1] = Stability test of analytes in rat plasma (QC samples); assay type: physicochemical; settings: for 24 h Stability RE: autosampler at 4 °C for 24 h; for Short-Term Stability RE: room temperature for 4 h; for Freeze-Thaw Stability RE: three freeze-thaw cycles; for Long-Term Stability RE: −80 °C for a week
Protocol: Stability. To evaluate the stability of each component during analysis, QC samples at low, middle, and high concentrations (three samples for each concentration) were tested under different conditions, including placing QC samples in the autosampler at 4 °C for 24 h, at room temperature for 4 h, at −80 °C for a week, and three freeze-thaw cycles.

[2] = Pharmacokinetics in adjuvant-induced arthritis (AA) rats after oral administration of Zushima-Gancao extract (UHPLC-MS/MS of plasma); settings: for change of Cmax in AA rats versus normal rats: p < 0.05
Protocol: (§1) The plasma concentration–time curves (C-T curves) of nine analytes are presented in Figure 2, and the corresponding pharmacokinetic parameters, including Cmax, Tmax, AUC (0–t), AUC (0–∞) (AUC: area under concentration-time curve), and t1/2, were obtained using DAS 3.0 pharmacokinetic software (Chinese Pharmacological Association, China). Statistical differences between groups were analyzed using Student’s t-tests, and p-values less than 0.05 were considered statistically significant.
(§2) The chromatography experiment was carried out using a UHPLC system (Thermo Fisher, San Jose, CA, USA), equipped with a Hypersil GOLD C18 column (100 mm × 2.1 mm, 3 μm, Thermo Fisher, San Jose, CA, USA) maintained at 35 °C. The mobile phase consisted of 0.05% formic acid in water (Solvent A) and acetonitrile (Solvent B), and the flow rate was 0.3 mL/min. In order to completely separate all the analytes, the 10 min gradient elution program was used as follows: 0–1 min, 10% B; 1–5 min, 10–90% B; 5–6 min, 90–100% B; 6–8 min, 100% B; 8–9 min, 100–10% B; 9–10 min, 10% B, and the sample injection volume was 3 μL.
(§3) Mass spectrometry detection was operated on TSQ Vantage triple-stage quadrupole mass spectrometer (Thermo Fisher, San Jose, CA, USA) equipped with an electrospray ionization (ESI) source. Quantification of the analytes was performed using selective reaction monitor (SRM) in the negative ionization mode. Spray voltage, sheath gas pressure, auxiliary gas pressure, vaporizer temperature, and capillary temperature were set as 3.0 kV, 45 arb, 25 arb, 450 °C, and 350 °C, respectively.
(§4) Male Sprague–Dawley (SD) rats weighing 180–220 g (SCXK-2012-0002) were supplied by Silaike Lab Animals Ltd. (Shanghai, China). They were all kept in a stable condition (temperature, 22 ± 2 °C; relative humidity, 45–60%) with 12 h light/dark cycles for five days before animal experiments.
(§5) Rats were randomly divided into normal and AA groups with six rats in each group. The arthritic model rats were prepared as our previous research [19]. AA rats were intracutaneously injected with 0.1 mL of FAC in the left hind footpad and normal rats were injected with sterile saline. The FAC solution was prepared as follows: bacillus calmette-guerin (BCG) was bathed in water at 80 °C for 30 min, and then dissolved in a liquid paraffin–lanolin mixture (3:2, v/v). Immediately prior to use, the FAC solution were sterilized for 30 min at 120 °C.
(§6) After model construction, the rats were fed for 20 days. All rats were fasted for 12 h before drug administration, with free access to water. Each rat was administered with Zushima-Gancao extract at a single dose of 10 mL/kg. Blood samples (approximately 0.3 mL) were collected into heparinized micro-centrifuge tubes from the postorbital venous plexus veins of rats at specific time points of 0, 0.08, 0.17, 0.33, 0.5, 1, 2, 3, 5, 8, 12, 24, and 36 h. All blood samples were centrifuged immediately at 5000 rpm for 6 min, and the plasma were obtained and stored at −80 °C until analysis.
(§7) A liquid–liquid extraction (LLE) method was applied to extract the compounds from thawed rat plasma samples, aliquots of 100 μL plasma sample were transferred into a 1.5 mL Eppendorf tube, and 10 μL of methanol, 10 μL of hydrochloric acid (2 mol/L), and 10 μL of IS (130 ng/mL) were added separately. The mixture was vortexed for 30 s, and 500 μL of ethyl acetate was added and mixed by vortexing for 10 min. The supernatant (about 450 μL) was transferred into another tube after centrifugation at 16,000 rpm for 10 min and then evaporated to dryness at 45 °C, 15 kPa in a Thermo SPD1010-230 SpeedVac Concentrator (Thermo Fisher, San Jose, CA, USA). The residue was dissolved in 100 μL of initial mobile phase by vortexing for 5 min, and a further centrifugation at 17,000 rpm for 10 min was applied after the residue was re-dissolved. The supernatant was injected into the UHPLC-MS/MS system for analysis.

[3] = Pharmacokinetics in normal rats after oral administration of Zushima-Gancao extract (UHPLC-MS/MS of plasma); assay type: in vivo; settings: male, Sprague-Dawley, rat, oral Zushima-Gancao extract 10 mL/kg single dose, n = 6, mean ± SD
Protocol: as §1, §2, §3, §4, §5, §6, §7

[4] = male, Sprague-Dawley, rat, plasma, po, 10 mL/kg
[5] = AA rats versus normal rats, oral Zushima-Gancao extract
[6] = male, Sprague-Dawley, rat, in vivo, po, 10 mL/kg

O=C1C[C@@H](c2ccc(O)cc2)Oc2cc(O)ccc21 [LG, liquiritigenin]
24 h Stability RE ([1]; high concentration): 8.56%
Short-Term Stability RE ([1]; high concentration): 1.5%
Freeze-Thaw Stability RE ([1]; high concentration): 6.75%
Long-Term Stability RE ([1]; high concentration): 3.89%
24 h Stability RE ([1]; low concentration): 6.72%
Short-Term Stability RE ([1]; low concentration): 9.76%
Freeze-Thaw Stability RE ([1]; low concentration): 7.22%
Long-Term Stability RE ([1]; low concentration): 2.87%
24 h Stability RE ([1]; middle concentration): 8.15%
Short-Term Stability RE ([1]; middle concentration): 11.16%
Freeze-Thaw Stability RE ([1]; middle concentration): 7.96%
Long-Term Stability RE ([1]; middle concentration): 0.58%
AUC(0-inf) [2, 4]: 194 ± 84.4 ng·h/mL
AUC(0-t) [2, 4]: 193 ± 83.2 ng·h/mL
Cmax [2, 4]: 29.7 ± 10.7 ng/mL
Tmax [2, 4]: 4.7 ± 2.52 h
half-life [2, 4]: 2.3 ± 0.95 h
AUC(0-inf) [3]: 170 ± 62.5 ng·h/mL
AUC(0-t) [3]: 169 ± 62.4 ng·h/mL
Cmax [3]: 23.9 ± 3.72 ng/mL
Tmax [3]: 3.86 ± 1.98 h
half-life [3]: 1.66 ± 0.44 h

CC1(C)[C@@H](O)CC[C@]2(C)[C@H]3C(=O)C=C4[C@@H]5C[C@@](C)(C(=O)O)CC[C@]5(C)CC[C@@]4(C)[C@]3(C)CC[C@@H]12 [GA, glycyrrhetinic acid]
24 h Stability RE ([1]; high concentration): 14.35%
Short-Term Stability RE ([1]; high concentration): 13.05%
Long-Term Stability RE ([1]; high concentration): 9.57%
24 h Stability RE ([1]; low concentration): 13.49%
Short-Term Stability RE ([1]; low concentration): 2.08%
Long-Term Stability RE ([1]; low concentration): 0.04%
24 h Stability RE ([1]; middle concentration): 14.1%
Short-Term Stability RE ([1]; middle concentration): −3.38%
Long-Term Stability RE ([1]; middle concentration): 5.44%
increase of AUC (0–∞) in model rats compared to normal rats [2, 5]: 2.2 fold
increase of AUC(0–t) in model rats compared to normal rats [2, 5]: 2.2 fold
AUC(0-inf) [2, 4]: 4330 ± 1860 ng·h/mL
AUC(0-t) [2, 4]: 4260 ± 1860 ng·h/mL
Cmax [2, 4]: 418 ± 296 ng/mL
Tmax [2, 4]: 9.33 ± 2.07 h
half-life [2, 4]: 4.94 ± 2.43 h
AUC(0-inf) [3]: 1960 ± 1260 ng·h/mL
AUC(0-t) [3]: 1940 ± 1240 ng·h/mL
Cmax [3]: 167 ± 93 ng/mL
Tmax [3]: 8.67 ± 1.63 h
half-life [3]: 3.88 ± 1.29 h

O=C(/C=C/c1ccc(O[C@@H]2O[C@H](CO)[C@@H](O)[C@H](O)[C@H]2O)cc1)c1ccc(O)cc1O [ILQ, isoliquiritin]
24 h Stability RE ([1]; high concentration): 6.64%
Short-Term Stability RE ([1]; high concentration): 3.29%
Freeze-Thaw Stability RE ([1]; high concentration): 4.51%
Long-Term Stability RE ([1]; high concentration): 2.66%
24 h Stability RE ([1]; low concentration): 4.99%
Short-Term Stability RE ([1]; low concentration): 9.08%
Freeze-Thaw Stability RE ([1]; low concentration): −2.51%
Long-Term Stability RE ([1]; low concentration): 7.49%
24 h Stability RE ([1]; middle concentration): 5.33%
Short-Term Stability RE ([1]; middle concentration): 12.35%
Freeze-Thaw Stability RE ([1]; middle concentration): −6.3%
Long-Term Stability RE ([1]; middle concentration): 5.37%
decrease of AUC (0–∞) compared with the normal group [2, 5]: 39.02%
Tmax ([2]; AA rats, oral Zushima-Gancao extract 10 mL/kg single dose, plasma, n = 6, mean ± SD): 0.36 ± 0.13 h
change of Tmax in AA rats versus normal rats ([2]; AA versus normal rats): obvious increase
change of Cmax in AA rats versus normal rats ([2]; AA versus normal rats): decreased remarkably
AUC(0-inf) [2, 6]: 4.11 ± 1.12 ng·h/mL
AUC(0-t) [2, 6]: 4.04 ± 1.2 ng·h/mL
Cmax [2, 6]: 4.63 ± 3.64 ng/mL
half-life [2, 6]: 0.94 ± 0.83 h
AUC(0-inf) [3]: 6.74 ± 0.6 ng·h/mL
AUC(0-t) [3]: 6.72 ± 0.6 ng·h/mL
Cmax [3]: 8.92 ± 1.68 ng/mL
Tmax [3]: 0.17 ± 0.09 h
half-life [3]: 0.52 ± 0.2 h

O=C1C[C@@H](c2ccc(O[C@@H]3O[C@H](CO)[C@@H](O)[C@H](O)[C@H]3O)cc2)Oc2cc(O)ccc21 [LQ, liquiritin]
24 h Stability RE ([1]; high concentration): 4.89%
Short-Term Stability RE ([1]; high concentration): 5.23%
Freeze-Thaw Stability RE ([1]; high concentration): 7.92%
Long-Term Stability RE ([1]; high concentration): 7.57%
24 h Stability RE ([1]; low concentration): 2.03%
Short-Term Stability RE ([1]; low concentration): −9.95%
Freeze-Thaw Stability RE ([1]; low concentration): 13.76%
Long-Term Stability RE ([1]; low concentration): 8.14%
24 h Stability RE ([1]; middle concentration): 3.31%
Short-Term Stability RE ([1]; middle concentration): 0.14%
Freeze-Thaw Stability RE ([1]; middle concentration): −5.95%
Long-Term Stability RE ([1]; middle concentration): −0.13%
decrease of AUC (0–∞) compared with the normal group [2, 5]: 24.57%
change of Cmax in AA rats versus normal rats ([2]; AA versus normal rats): decreased remarkably
AUC(0-inf) [2, 4]: 34.4 ± 8.89 ng·h/mL
AUC(0-t) [2, 4]: 33.1 ± 6.8 ng·h/mL
Cmax [2, 4]: 30.1 ± 13.8 ng/mL
Tmax [2, 4]: 0.21 ± 0.1 h
half-life [2, 4]: 0.75 ± 0.65 h
AUC(0-inf) [3]: 45.5 ± 3.9 ng·h/mL
AUC(0-t) [3]: 45.5 ± 3.89 ng·h/mL
Cmax [3]: 58.8 ± 12.5 ng/mL
half-life [3]: 0.47 ± 0.15 h

CC1(C)[C@@H](O[C@H]2O[C@H](C(=O)O)[C@@H](O)[C@H](O)[C@H]2O[C@@H]2O[C@H](C(=O)O)[C@@H](O)[C@H](O)[C@H]2O)CC[C@]2(C)[C@H]3C(=O)C=C4[C@@H]5C[C@@](C)(C(=O)O)CC[C@]5(C)CC[C@@]4(C)[C@]3(C)CC[C@@H]12 [GL, glycyrrhizin]
24 h Stability RE ([1]; high concentration): 13.22%
Short-Term Stability RE ([1]; high concentration): 13.85%
Freeze-Thaw Stability RE ([1]; high concentration): 14.36%
Long-Term Stability RE ([1]; high concentration): 9.2%
24 h Stability RE ([1]; low concentration): 11.79%
Short-Term Stability RE ([1]; low concentration): 10.26%
Freeze-Thaw Stability RE ([1]; low concentration): 10.89%
Long-Term Stability RE ([1]; low concentration): 11.48%
24 h Stability RE ([1]; middle concentration): 11.8%
Short-Term Stability RE ([1]; middle concentration): 10.68%
Freeze-Thaw Stability RE ([1]; middle concentration): 14.3%
Long-Term Stability RE ([1]; middle concentration): 9.96%
decrease of AUC (0–∞) compared with the normal group [2, 5]: 29.89%
change of Tmax in AA rats versus normal rats ([2]; AA versus normal rats): obvious increase
AUC(0-inf) [2, 4]: 187 ± 64.6 ng·h/mL
AUC(0-t) [2, 4]: 184 ± 61.7 ng·h/mL
Cmax [2, 4]: 24.9 ± 7.81 ng/mL
Tmax [2, 4]: 4.83 ± 2.64 h
half-life [2, 4]: 4.88 ± 3.04 h
AUC(0-inf) [3]: 267 ± 49.7 ng·h/mL
AUC(0-t) [3]: 248 ± 47.8 ng·h/mL
Cmax [3]: 29 ± 10.5 ng/mL
Tmax [3]: 0.58 ± 0.35 h
half-life [3]: 8.72 ± 4.81 h

O=C(/C=C/c1ccc(O)cc1)c1ccc(O)cc1O [ILG, isoliquiritigenin]
24 h Stability RE ([1]; high concentration): 10.13%
Short-Term Stability RE ([1]; high concentration): 12.09%
Freeze-Thaw Stability RE ([1]; high concentration): 7.59%
Long-Term Stability RE ([1]; high concentration): 13.23%
24 h Stability RE ([1]; low concentration): 8.75%
Short-Term Stability RE ([1]; low concentration): −3.23%
Freeze-Thaw Stability RE ([1]; low concentration): 2.53%
Long-Term Stability RE ([1]; low concentration): −11.29%
24 h Stability RE ([1]; middle concentration): 10.08%
Short-Term Stability RE ([1]; middle concentration): 11.76%
Freeze-Thaw Stability RE ([1]; middle concentration): 12.3%
Long-Term Stability RE ([1]; middle concentration): 12.68%
change of Tmax in AA rats versus normal rats ([2]; AA versus normal rats): obvious increase
AUC(0-inf) [2, 4]: 8.48 ± 3.04 ng·h/mL
AUC(0-t) [2, 4]: 8.25 ± 2.9 ng·h/mL
Cmax [2, 4]: 1.92 ± 0.55 ng/mL
Tmax [2, 4]: 3.7 ± 2.1 h
half-life [2, 4]: 1.39 ± 0.65 h
AUC(0-inf) [3]: 12.4 ± 6.97 ng·h/mL
AUC(0-t) [3]: 8.89 ± 3.12 ng·h/mL
Cmax [3]: 2.77 ± 0.83 ng/mL
Tmax [3]: 0.14 ± 0.05 h
half-life [3]: 1.08 ± 0.67 h

O=c1ccc2ccc(O)c(O)c2o1 [DPH, daphnetin]
24 h Stability RE ([1]; high concentration): −11.8%
Short-Term Stability RE ([1]; high concentration): −12.42%
Freeze-Thaw Stability RE ([1]; high concentration): −14.04%
Long-Term Stability RE ([1]; high concentration): −12.23%
24 h Stability RE ([1]; low concentration): −13.85%
Short-Term Stability RE ([1]; low concentration): −7.83%
Freeze-Thaw Stability RE ([1]; low concentration): −6.29%
Long-Term Stability RE ([1]; low concentration): −12.07%
24 h Stability RE ([1]; middle concentration): −13.73%
Short-Term Stability RE ([1]; middle concentration): −12.68%
Freeze-Thaw Stability RE ([1]; middle concentration): −8.25%
Long-Term Stability RE ([1]; middle concentration): −15%
decrease of AUC (0–∞) compared with the normal group [2, 5]: 34.56%
change of t1/2 in AA rats versus normal rats ([2]; AA versus normal rats): remarkable decrease
AUC(0-inf) [2, 4]: 167 ± 49 ng·h/mL
AUC(0-t) [2, 4]: 165 ± 49.4 ng·h/mL
Cmax [2, 4]: 201 ± 108 ng/mL
Tmax [2, 4]: 0.2 ± 0.07 h
half-life [2, 4]: 2.06 ± 0.26 h
AUC(0-inf) [3]: 256 ± 54.8 ng·h/mL
AUC(0-t) [3]: 246 ± 53.9 ng·h/mL
Cmax [3]: 214 ± 32.5 ng/mL
Tmax [3]: 0.24 ± 0.11 h
half-life [3]: 3.4 ± 0.96 h
